Patent US12129246B1, “Hydroquinazoline derivatives for the treatment of a disease or disorder” (Novartis AG, priority 2023, dated 2024)
Like-named read-outs stand apart in the source and are kept apart here.

Experiments:
human NPR1 = molecular target: T1, human NPR1 (Homo sapiens, UniProt P16066); test: Cellular cGMP production assay, human NPR1 expressing CHO-K1 cells (CisBio HTRF); format: cell-based; conditions: for AC50: cGMP production, 30 min at 37° C., 12-point dose-response from 30 μM; for Human NPR1 Amax (% of ANP): maximum cGMP production as percentage of the maximum cGMP produced with ANP
T1 construct: host or cells: CHO-K1
T1 sequence (P16066 33-1061): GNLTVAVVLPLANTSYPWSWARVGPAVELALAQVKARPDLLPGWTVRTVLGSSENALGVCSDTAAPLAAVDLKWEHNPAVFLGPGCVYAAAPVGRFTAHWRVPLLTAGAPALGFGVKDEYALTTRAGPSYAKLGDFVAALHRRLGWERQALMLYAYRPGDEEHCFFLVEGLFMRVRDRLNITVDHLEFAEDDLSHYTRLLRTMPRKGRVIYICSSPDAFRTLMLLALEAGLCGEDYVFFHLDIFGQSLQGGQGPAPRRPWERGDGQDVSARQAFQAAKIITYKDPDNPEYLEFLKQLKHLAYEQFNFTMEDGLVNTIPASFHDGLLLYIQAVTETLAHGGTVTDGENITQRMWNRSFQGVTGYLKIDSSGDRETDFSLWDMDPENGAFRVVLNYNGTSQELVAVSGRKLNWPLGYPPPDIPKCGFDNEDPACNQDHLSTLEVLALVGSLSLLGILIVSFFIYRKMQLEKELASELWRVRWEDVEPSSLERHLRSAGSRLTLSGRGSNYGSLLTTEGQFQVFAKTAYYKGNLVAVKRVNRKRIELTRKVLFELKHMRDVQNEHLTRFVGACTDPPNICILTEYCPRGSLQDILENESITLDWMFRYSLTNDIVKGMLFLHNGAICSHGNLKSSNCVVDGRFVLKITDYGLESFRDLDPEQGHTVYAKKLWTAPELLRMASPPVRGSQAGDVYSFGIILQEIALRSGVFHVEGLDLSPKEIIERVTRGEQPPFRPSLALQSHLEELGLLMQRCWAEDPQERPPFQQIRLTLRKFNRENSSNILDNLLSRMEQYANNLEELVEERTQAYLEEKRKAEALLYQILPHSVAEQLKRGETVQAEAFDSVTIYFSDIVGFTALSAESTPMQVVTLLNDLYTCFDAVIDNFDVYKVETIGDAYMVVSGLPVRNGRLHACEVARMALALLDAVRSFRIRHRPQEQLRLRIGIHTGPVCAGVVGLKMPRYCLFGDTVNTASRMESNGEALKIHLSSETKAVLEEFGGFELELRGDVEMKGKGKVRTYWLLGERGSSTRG
Procedure, shortened: (§1)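 Read-out was HTRF (excitation 317 nm, emission 665 nm), with cGMP quantified as Delta F against a calibrator standard curve. Beforehand, cells were exposed for 30 min at 37 °C to compound (30 μM top, twelve 3-fold steps) in IBMX-containing PBS/BSA buffer, then lysed.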

monkey NPR1 = monkey NPR1 (Macaca fascicularis, UniProt A0A7N9DBT9); test: Cellular cGMP production assay, monkey NPR1 expressing CHO-K1 cells (CisBio HTRF); format: cell-based; conditions: for Monkey NPR1 Amax (% of ANP): maximum cGMP production as percentage of the maximum cGMP produced with ANP
monkey NPR1, sequence (A0A7N9DBT9 entry or part of it): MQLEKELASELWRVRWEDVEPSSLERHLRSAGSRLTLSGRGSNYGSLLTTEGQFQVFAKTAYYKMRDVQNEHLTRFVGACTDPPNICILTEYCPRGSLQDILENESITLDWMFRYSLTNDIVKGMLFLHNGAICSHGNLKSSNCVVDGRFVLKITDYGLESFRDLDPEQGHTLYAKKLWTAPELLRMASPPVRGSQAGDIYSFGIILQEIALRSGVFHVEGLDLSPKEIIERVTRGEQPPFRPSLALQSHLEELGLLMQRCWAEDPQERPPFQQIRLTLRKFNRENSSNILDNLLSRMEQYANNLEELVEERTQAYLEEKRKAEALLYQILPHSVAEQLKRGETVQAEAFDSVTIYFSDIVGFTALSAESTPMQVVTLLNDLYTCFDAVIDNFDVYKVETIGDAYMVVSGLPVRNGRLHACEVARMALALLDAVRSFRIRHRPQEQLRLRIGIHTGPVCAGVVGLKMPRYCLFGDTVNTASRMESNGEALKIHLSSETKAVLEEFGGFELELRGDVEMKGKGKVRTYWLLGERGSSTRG
Procedure, shortened: as §1

[1] = cGMP production, monkey NPR1 CHO-K1 cells, 30 min at 37° C., 12-point dose-response from 30 μM, read-out: Monkey NPR1 AC50

Row | SMILES | AC50 (human NPR1) | Human NPR1 Amax (% of ANP) (human NPR1) | AC50 (monkey NPR1) | Monkey NPR1 Amax (% of ANP) (monkey NPR1; monkey NPR1 CHO-K1 cells) | AC50 (monkey NPR1; [1])
1 | CC[C@@H](N(C)c1nc2c(c(N[C@@H](CN3C4CCCC3CC4)c3sc(C)nc3C)n1)C[C@H](c1cccc(F)c1)CC2)C12CC(C(=O)O)(C1)C2 [Compound 111, 3-((1R)-1-(((6R)-4-(((1S)-2-(8-azabicyclo[3.2.1]octan-8-yl)-1-(2,4-dimethylthiazol-5-yl)ethyl)amino)-6-(3-fluorophenyl)-5,6,7,8-tetrahydroquinazolin-2-yl)(methyl)amino)propyl)bicyclo[1.1.1]pentane-1-carboxylic acid] | 424 nM | 106.085 % of ANP | 271 nM | 103.264 % of ANP | 
2 | CC[C@H]([C@H]1CC[C@H](C(=O)O)CC1)N(C)c1nc2c(c(N[C@@H](CN3CCC[C@H](C)C3)c3cnn(C)c3)n1)C[C@H](c1ccc(F)cc1)CC2 [Compound 14, (1R,4r)-4-((R)-1-(((R)-6-(4-fluorophenyl)-4-(((R)-1-(1-methyl-1H-pyrazol-4-yl)-2-((S)-3-methylpiperidin-1-yl)ethyl)amino)-5,6,7,8-tetrahydroquinazolin-2-yl)(methyl)amino)propyl)cyclohexane-1-carboxylic acid] | 97 nM | 94.761 % of ANP |  | 88.286 % of ANP | 62 nM
3 | CC[C@H]([C@H]1CC[C@H](C(=O)O)CC1)N(C)c1nc2c(c(NC(CN3CCC[C@H](C)C3)c3cnn(CF)c3)n1)C[C@H](c1ccccc1)CC2 (stereo partly drawn) [Compound 107, (1R,4r)-4-((1R)-1-(((6R)-4-((1-(1-(fluoromethyl)-1H-pyrazol-4-yl)-2-((S)-3-methylpiperidin-1-yl)ethyl)amino)-6-phenyl-5,6,7,8-tetrahydroquinazolin-2-yl)(methyl)amino)propyl)cyclohexane-1-carboxylic acid] | 404 nM | 97.223 % of ANP |  | 100.163 % of ANP | 224 nM
4 | CC[C@H]([C@H]1CC[C@H](C(=O)O)CC1)N(C)c1nc2c(c(N[C@@H](CN3C4CCC3CC4)c3cnn(C)c3)n1)C[C@H](c1cccc(F)c1)CC2 [Compound 57, (1R,4r)-4-((R)-1-(((R)-4-(((R)-2-(7-azabicyclo[2.2.1]heptan-7-yl)-1-(1-methyl-1H-pyrazol-4-yl)ethyl)amino)-6-(3-fluorophenyl)-5,6,7,8-tetrahydroquinazolin-2-yl)(methyl)amino)propyl)cyclohexane-1-carboxylic acid] | 199 nM | 101.340 % of ANP | 82 nM | 103.000 % of ANP | 
5 | CC[C@H]([C@H]1CC[C@H](C(=O)O)CC1)N(C)c1nc2c(c(N[C@@H](CN3C4CCCC3CC4)c3cnn(C)c3)n1)C[C@H](c1ccc(F)cc1)CC2 [Compound 31, (1R,4r)-4-((1R)-1-(((6R)-4-(((1R)-2-(8-azabicyclo[3.2.1]octan-8-yl)-1-(1-methyl-1H-pyrazol-4-yl)ethyl)amino)-6-(4-fluorophenyl)-5,6,7,8-tetrahydroquinazolin-2-yl)(methyl)amino)propyl)cyclohexane-1-carboxylic acid] | 144 nM | 92.978 % of ANP | 89 nM | 100.914 % of ANP | 
6 | CC[C@@H](Nc1nc2c(c(N[C@@H](CN3C4CCCC3CC4)c3cnn(C)c3)n1)C[C@H](c1ccccc1)CC2)[C@H]1CC[C@H](C(=O)O)CC1 [Compound 60, (1R,4r)-4-((1R)-1-(((6R)-4-(((1R)-2-(8-azabicyclo[3.2.1]octan-8-yl)-1-(1-methyl-1H-pyrazol-4-yl)ethyl)amino)-6-phenyl-5,6,7,8-tetrahydroquinazolin-2-yl)amino)propyl)cyclohexane-1-carboxylic acid] | 205 nM | 93.233 % of ANP | 99 nM | 106.189 % of ANP | 
